Each molecule was assayed on Candida albicans CaCi-2 growth, Alamar Blue fluorescence, 48 h (assay: antifungal activity of compounds alone, resistant C. albicans – CaCi-2 isolate, Alamar Blue, cherry-pick, dose response (AID 588529)).
`Oc1ccc(N=Nc2ccc3c(c2)OCCO3)c2ncccc12` gave an AC50 of 2.59 µM.
For `CCN(CC)S(=O)(=O)c1cc(OC)ccc1N=Nc1ccc(O)c2ncccc12`, the AC50 was 10.6 µM.
Molecule `C=CCNC(=S)N/N=C(\C)c1ccccn1` has an AC50 of 13.8 µM.
In the case of `O=Cc1ccc(O)c2ncccc12`, the AC50 is reported as 3.85 µM.
`Oc1c(C(c2ccc(Cl)cc2)N2CCCC2)cc(Cl)c2cccnc12` (centres undefined) showed an AC50 of 1.51 µM.
`O=C(Oc1c(Cl)cc(Cl)c2cccnc12)c1ccco1` showed an AC50 of 0.812 µM.
`Oc1ccc(N=Nc2ccc3c(c2)OCCO3)c2cccnc12` gave an AC50 of 3.55 µM.
`O=C(N/N=C/c1cc2c3c(c1O)CCCN3CCC2)c1ccccc1O` was tested, and the AC50 was 1.75 µM.
`COc1ccc(C)cc1N=Nc1ccc(O)c2ncccc12` was tested, and the AC50 was 1.71 µM.
`C(C#CCCCCCCCCC[n+]1ccccc1)#CCCCCCCCCC[n+]1ccccc1` showed an AC50 of 16.2 µM.
Molecule `O=C(Oc1c(Cl)cc(Cl)c2cccnc12)c1cccs1` has an AC50 of 1.49 µM.
`Oc1c(CN2CCN(c3ccccc3)CC2)cc(Br)c2cccnc12` showed an AC50 of 2.38 µM.
`CCCCC(=O)NC(c1ccco1)c1cc(Cl)c2cccnc2c1O` (centres undefined) was tested, and the AC50 was 6.22 µM.
Work on `O=[N+]([O-])c1cc(CN2CCN(c3ccccc3)CC2)c(O)c2ncccc12` yielded an AC50 of 5.39 µM.
`Cc1cc(NC(c2ccc(Cl)cc2)c2ccc3cccnc3c2O)no1` (centres undefined) was tested, and the AC50 was 4.71 µM.
`CCCCC(=O)NC(c1ccc(Cl)cc1)c1ccc2cccnc2c1O` (centres undefined) showed an AC50 of 5.11 µM.
`COc1cccc(N=Nc2ccc3cccnc3c2O)c1` showed an AC50 of 1.52 µM.
Molecule `CCCCC(=O)NC(c1ccc(N(CC)CC)cc1)c1ccc2cccnc2c1O` (centres undefined) has an AC50 of 3.74 µM.
For `O=c1ccc(N=Nc2ccccc2)ccc1O`, the AC50 was 4.76 µM.
Work on `C/C(=N\NC(=O)c1cc2ccccc2cc1O)c1ccccn1` yielded an AC50 of 5 µM.
Molecule `Cc1ccc(C(=O)c2coc3c2C(=O)C(=O)c2ccccc2-3)cc1` has an AC50 of 9.38 µM.
Molecule `CCOc1ccc(N=Nc2ccc(O)c3ncccc23)cc1` has an AC50 of 1.4 µM.
Work on `Oc1c(C(Nc2nccs2)c2ccc(C(F)(F)F)cc2)ccc2cccnc12` (centres undefined) yielded an AC50 of 3.73 µM.
`O=Nc1c(-c2cccc([N+](=O)[O-])c2)nc2ncccn12` gave an AC50 of 5.11 µM.
`CCCCCCC[n+]1ccc(-c2cc[n+](CCCCCCC)cc2)cc1` gave an AC50 of 3.76 µM.
With `Oc1c(C(Nc2nc3ccccc3s2)c2ccco2)ccc2cccnc12` (centres undefined) the AC50 was 3.26 µM.
`COc1cccc(/C=N/Nc2ncnc3scc(-c4ccccc4)c23)c1O` showed an AC50 of 5.52 µM.
Work on `CN1CCN(C(c2ccc(C(F)(F)F)cc2)c2cc(Cl)c3cccnc3c2O)CC1` (centres undefined) yielded an AC50 of 2.71 µM.
For `O=[N+]([O-])c1ccc(O)c(/C=N/Nc2ccc(Cl)nn2)c1`, the AC50 was 5.11 µM.
Molecule `O=C(N/N=C/c1c(O)ccc2ccccc12)c1cccc(C(F)(F)F)c1` has an AC50 of 1.45 µM.
`COc1cccc(N=Nc2ccc(O)c3ncccc23)c1` gave an AC50 of 0.39 µM.
Work on `Oc1c(CN2CCN(c3ccc(F)cc3)CC2)cc(Cl)c2cccnc12` yielded an AC50 of 3.73 µM.
With `CCOC(=O)N1C(=O)C2(CCCCC2)N(c2ccc(C)cc2)C1=S` the AC50 was 0.102 µM.
In the case of `CN1CCN(C(c2ccc(C(F)(F)F)cc2)c2ccc3cccnc3c2O)CC1` (centres undefined), the AC50 is reported as 5.05 µM.
